Test systems include HOP-18; DMS-114; LXFL 529; DMS-273; RXF 631; M19-MEL; SNB-78; KM-20L2; XF498.
Assay in all cases: NCI-60 cell line screen, 48 h

The structures appear in SMILES notation.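 Cells were grown in 96-well plates and exposed to each compound for 48 hours at five concentrations; endpoints were interpolated linearly between bracketing concentrations, or set to the highest concentration if not reached. Here, GI50 denotes the concentration required for 50% inhibition of growth.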 Calls of active or inactive are those of the source. No stated cut-off is given here; in the data, active = GI50 up to about 1.1 µM and inactive = higher.

The record followed here is ChEMBL document CHEMBL1201862, “PubChem BioAssay data set” (2004).

On to `O=[N+]([O-])c1ccc(/C=N/C23CC4CC(CC(C4)C2)C3)cc1`, for which the GI50 is > 100 µM (inactive) in the test on HOP-18; 91.2 µM (inactive) in the test on DMS-114; > 100 µM (inactive) with LXFL 529; > 100 µM (inactive) with DMS-273; > 100 µM (inactive) with RXF 631; > 100 µM (inactive) in the test with M19-MEL. Besides, the GI50 in the test on SNB-78, in the test with KM-20L2 and in the test with XF498 was > 100 µM (inactive) throughout.

For `CN(C)/C=C/C(=O)c1cccc(C(=O)/C=C/N(C)C)n1`, the GI50 in the test with HOP-18, in the test with LXFL 529, in the test with DMS-273, with M19-MEL, in the test with SNB-78 and in the test on KM-20L2 was > 100 µM (inactive) throughout. The GI50 with XF498 is > 100 µM (inactive).

For `CC(C)=CC(=O)OC1C2C(C)=CC(=O)C(O)C2(C)C2C3(O)OCC24C(CC(=O)OC14)C(C)C3O` (centres undefined), the GI50 is 0.00348 µM (active) in the test on DMS-273, 0.0311 µM (active) with SNB-78, 0.0316 µM (active) in the test on KM-20L2 and 0.0246 µM (active) with XF498.

Regarding `O=C1c2c(c3c4ccccc4n(CC4CO4)c3c3[nH]c4ccccc4c23)C(=O)N1Cc1ccccc1` (centres undefined), the GI50 in the test with DMS-114, in the test with LXFL 529, with DMS-273, in the test on RXF 631, in the test with M19-MEL and with SNB-78 was > 100 µM (inactive) throughout. The GI50 in the test with XF498 was 3.7 µM (inactive).

Turning to `CC1=NN(C(=O)Cc2ccccc2)C(=O)/C1=C\c1ccc([N+](=O)[O-])cc1`, the GI50 in the test on DMS-114, in the test on LXFL 529, in the test on M19-MEL, with SNB-78, with KM-20L2 and in the test with XF498 was > 100 µM (inactive) in each case.

Consider `N#CCN1C(=O)c2cc([N+](=O)[O-])cc3cc([N+](=O)[O-])cc(c23)C1=O`, for which the GI50 with HOP-18 was 64.3 µM (inactive); in the test with DMS-114, 15.2 µM (inactive); in the test on LXFL 529, 9.23 µM (inactive); in the test on DMS-273, 23.9 µM (inactive); with RXF 631, 20 µM (inactive); in the test with M19-MEL it was 14.3 µM (inactive). Also, the GI50 in the test with SNB-78 is 16.7 µM (inactive); in the test with KM-20L2 it was 12.9 µM (inactive); in the test on XF498, 12.2 µM (inactive).

With `O=c1c2ccccc2nc(-c2cccc(Cl)c2)n1NCC1(O)OCC(O)C(O)C1O` (centres undefined), the GI50 in the test on DMS-114 is > 100 µM (inactive); with LXFL 529 it was 93.1 µM (inactive); in the test with DMS-273, > 100 µM (inactive); in the test on RXF 631, 66.5 µM (inactive); in the test with M19-MEL, > 100 µM (inactive); in the test with SNB-78 it was > 100 µM (inactive). Besides, the GI50 with KM-20L2 was > 100 µM (inactive).

`CN1C(=O)N(c2nc3ccccc3[nH]2)C(C)(C)C1=O`: the GI50 in the test on HOP-18, in the test with DMS-114, in the test on LXFL 529, in the test on DMS-273, in the test with M19-MEL and with SNB-78 was > 100 µM (inactive) throughout. For the same compound, the GI50 in the test on KM-20L2 and in the test with XF498 was > 100 µM (inactive) each time.

As for `CCCOP(=S)(N1CC1)N1CC1`, the GI50 was 40.7 µM (inactive) with HOP-18; > 100 µM (inactive) in the test with DMS-114; > 100 µM (inactive) with DMS-273; > 100 µM (inactive) in the test on M19-MEL; > 100 µM (inactive) with SNB-78; > 100 µM (inactive) in the test on KM-20L2. In the test on XF498, the GI50 was > 100 µM (inactive).

For the compound `COC(=O)N/N=C(/CCC(=O)Nc1ccc(C)c(C)c1)CC(=O)C(C)(C)C`, the GI50 with HOP-18, in the test with DMS-114, in the test with LXFL 529, in the test with DMS-273, with M19-MEL and in the test on KM-20L2 was > 100 µM (inactive) each time. For the same compound, in the test with XF498, the GI50 was > 100 µM (inactive).

For `CCOC(=O)C1=C(C)N(c2ccc(C)cc2)C2=C(C(=O)N(c3ccccc3)C2c2ccccc2)C1c1ccccc1` (centres undefined), the GI50 in the test with DMS-114 was 17.9 µM (inactive); with LXFL 529, 20 µM (inactive); with DMS-273 it was > 25 µM (inactive); in the test with RXF 631 it was > 25 µM (inactive); in the test with M19-MEL, > 25 µM (inactive); in the test on KM-20L2, > 25 µM (inactive). For the same compound, the GI50 in the test on XF498 is > 25 µM (inactive).

On to `CCOC(=O)c1[nH]c(COC(C)=O)c(CCCOC(C)=O)c1CCCOC(C)=O`, for which the GI50 in the test with LXFL 529, in the test on DMS-273, with SNB-78, in the test on KM-20L2 and in the test with XF498 was > 100 µM (inactive) throughout.

As for `ClC/C=C/COC1CCCCO1` (centres undefined), the GI50 in the test on HOP-18 is > 100 µM (inactive); in the test on DMS-114 it was 33.2 µM (inactive); in the test with LXFL 529, > 100 µM (inactive); with DMS-273 it was 62.2 µM (inactive); with RXF 631 it was 34.8 µM (inactive); in the test with M19-MEL it was > 100 µM (inactive). Besides, the GI50 with SNB-78 was > 100 µM (inactive); with KM-20L2, > 100 µM (inactive); in the test with XF498 it was 25.2 µM (inactive).

As to `Cc1cc2c(cc1C)[n+]([O-])c(C(=O)C/C(=N/NC(=S)NN)C(=O)Nc1cccc(C(F)(F)F)c1)c[n+]2[O-]`, the GI50 in the test on HOP-18, in the test on DMS-114, in the test on LXFL 529, with DMS-273, in the test with RXF 631 and with M19-MEL was > 100 µM (inactive) in each case. Besides, in the test on SNB-78, the GI50 was > 100 µM (inactive).

As to `O=C1C2C=CC(n3[nH]c(=O)n(Cc4ccccc4)c3=O)CC2C(=O)N1c1cccc(Cl)c1` (centres undefined), the GI50 in the test on HOP-18, in the test with DMS-114, with LXFL 529, in the test with DMS-273, in the test on M19-MEL and with SNB-78 was > 100 µM (inactive) each time. Besides, the GI50 in the test on KM-20L2 was > 100 µM (inactive); in the test with XF498, 65.9 µM (inactive).

With `OCc1cc2c(cn1)[nH]c1ccc(NCc3ccccc3)cc12`, the GI50 with DMS-114 was 15.6 µM (inactive); with LXFL 529, 17.9 µM (inactive); in the test with DMS-273 it was 20.7 µM (inactive); in the test on RXF 631 it was 27.4 µM (inactive); in the test on M19-MEL, 22.2 µM (inactive); in the test on KM-20L2 it was 14.4 µM (inactive). For the same compound, in the test on XF498, the GI50 is 25.8 µM (inactive).

Consider `COc1ccc(Cc2c3cc(O)c([O-])cc3cc[n+]2C)cc1`, for which the GI50 was 36.1 µM (inactive) with HOP-18; 12.8 µM (inactive) in the test with DMS-114; 16.5 µM (inactive) with DMS-273; 6.49 µM (inactive) in the test with RXF 631; 20.7 µM (inactive) in the test on M19-MEL; > 100 µM (inactive) with SNB-78. In addition, the GI50 in the test with KM-20L2 was 51.1 µM (inactive); in the test with XF498, 18.4 µM (inactive).

Turning to `O=C1OC(c2ccccc2)=N/C1=C/NC(Cc1ccccc1)C(=O)O` (centres undefined), the GI50 in the test with LXFL 529, in the test with DMS-273, in the test on RXF 631, in the test with M19-MEL, in the test on SNB-78 and in the test with KM-20L2 was > 100 µM (inactive) each time.

On to `N#CC(C#N)=CSc1ccccc1`, for which the GI50 with HOP-18 was > 100 µM (inactive); in the test with DMS-114, 17.7 µM (inactive); in the test on LXFL 529 it was 24.3 µM (inactive); with DMS-273 it was 21.4 µM (inactive); with RXF 631, 20.6 µM (inactive); in the test on KM-20L2, 32.7 µM (inactive). Moreover, the GI50 in the test on XF498 is 53.7 µM (inactive).

With `N#Cc1cc([N+](=O)[O-])ccc1NC(=O)/C(=N\NC(=O)c1ccncc1)C(c1cnc2ccc([N+](=O)[O-])cc2n1)[N+](=O)[O-]` (centres undefined), the GI50 is 1.5 µM (inactive) with HOP-18; 1.6 µM (inactive) with DMS-114; 1.57 µM (inactive) in the test with LXFL 529; 1.82 µM (inactive) with DMS-273; 2.32 µM (inactive) in the test on RXF 631; 0.566 µM (active) in the test with M19-MEL. For the same compound, the GI50 in the test with SNB-78 is 6.34 µM (inactive); with KM-20L2, 4.26 µM (inactive); in the test on XF498, 1.69 µM (inactive).

Turning to `COc1ccc(/C=C/c2nnc(S)[nH]2)cc1OC`, the GI50 in the test on DMS-114, in the test with LXFL 529, in the test with DMS-273, with M19-MEL, in the test on SNB-78 and with KM-20L2 was > 100 µM (inactive) throughout. Also, the GI50 in the test with XF498 was > 100 µM (inactive).

`O=C1C(Cl)C(c2cc(Br)cc(Br)c2O)N1n1cnc2ccccc2c1=O` (centres undefined): the GI50 was 24.5 µM (inactive) with HOP-18; 21 µM (inactive) in the test with LXFL 529; 29.4 µM (inactive) in the test on DMS-273; 16.7 µM (inactive) in the test on M19-MEL; 20.7 µM (inactive) with SNB-78; 32.5 µM (inactive) with KM-20L2. In addition, in the test on XF498, the GI50 was 23.3 µM (inactive).

On to `CC1=CC(=O)CC2(C)CC[C@@H]3C[C@]12OC3(C)C` (some centres undefined), for which the GI50 in the test with HOP-18, with DMS-114, with LXFL 529, with DMS-273, in the test with M19-MEL and in the test on SNB-78 was > 100 µM (inactive) in each case. Also, the GI50 in the test with KM-20L2 and in the test on XF498 was > 100 µM (inactive) each time.

On to `O=c1cc(-c2ccccc2F)[nH]c2cc3c(cc12)OCO3`, for which the GI50 in the test on HOP-18 is 0.544 µM (active); with DMS-114, 0.508 µM (active); with LXFL 529, 0.0403 µM (active); in the test on DMS-273 it was 0.189 µM (active); in the test with M19-MEL, 0.236 µM (active); in the test on SNB-78 it was 0.23 µM (active). Further, the GI50 in the test with XF498 was 1.5 µM (inactive).

For the compound `N=C1NC(=O)N2CC12` (centres undefined) [IMEXON], the GI50 with HOP-18, in the test on DMS-114, in the test with LXFL 529, in the test with DMS-273, in the test on KM-20L2 and in the test on XF498 was > 100 µM (inactive) each time.
